From US5798365A, “Substituted quinoline derivatives, a process for their preparation, and their use” (Hoechst Aktiengesellschaft, priority 1994, dated 1998)
≈ marks a conversion by molar mass, not a printed value. Like-named read-outs stand apart in the source and are kept apart here.

Legend:
HIV = experiment: Testing preparations against HIV in cell culture (infected human donor lymphocytes); assay type: cell-based; conditions: for MIC: Human immunodeficiency virus 1, 72 h, lowest concentration without giant cells; for IC50: Human immunodeficiency virus 1, Lymphocyte, 72 h
Experimental: Testing preparations against HIV in cell culture
Description of the method
The complete medium additionally contains 20% foetal calf serum and 40 IU/ml recombinant interleukin 2.
Lymphocytes which have been isolated from fresh donor blood by means of Ficoll® gradient centrifugation are cultured, at 37° C. for 36 h and under 5% CO2, in complete medium in the added presence of […] phytohemagglutinin (Wellcome). After the addition of 10% DMSO, the cells are frozen at a cell density of 5×10^6 and stored in liquid nitrogen. For the experiment, the cells are thawed, washed in RPMI medium and cultured for 3-4 days in complete medium.
The preparations for testing were dissolved in DMSO at a concentration of 16.7 mg/ml and diluted to 1 mg/ml in complete medium. 0.4 ml of medium was initially introduced in 24-well multiwell plates. After 0.1 ml of the dissolved preparation had been added to the upper row of the plate, a geometrical dilution series was produced by transferring 0.1 ml on each occasion. Preparation-free controls always contained 0.4 ml of complete medium containing 0.5% DMSO.
Lymphocyte cultures having a cell count of 5×10^5 cells/ml were infected by adding a 1/50 volume of the supernatant from lymphocyte cultures infected with HIV. The titer of these culture supernatants was determined, by end point dilution, to be 1-5×10^6 infectious units/ml. After incubating at 37° C. for 30 min, the infected lymphocytes were centrifuged off and taken up once again in the same volume of medium. 0.6 ml of this cell suspension was added to each of the wells in the test plate. The assay mixtures were incubated at 37° C. for 3 days.
The infected cell cultures were examined under the microscope for the presence of giant cells, which indicate that the virus is multiplying actively in the culture. The lowest preparation concentration at which no giant cells appeared was defined as the inhibitory concentration against HIV (MIC value). As a control, the presence of HIV antigen in the supernatants from the culture plates was determined using a test for HIV antigen in accordance with the manufacturer's (Organon) instructions.

[1] = biological target: T1, HIV reverse transcriptase (Human immunodeficiency virus type 1 group M subtype B, UniProt P04585); experiment: Inhibition of HIV reverse transcriptase, scintillation proximity assay (SPA); assay type: biochemical; conditions: RT-SPA, 60 min, 37° C., read-out: Reverse Transcriptase Asaay IC-50 (converted)
T1 construct: purchased HT-Biotechnology LTD, Cambridge, UK; host or cells: E. coli
Experimental: Investigation of the ability of the substances to inhibit the HIV reverse transcriptase
The activity of the reverse transcriptase (RT) was measured by means of a scintillation proximity assay (SPA).
The reagent kit for the RT-SPA was obtained from Amersham/Buchler (Braunschweig). The RT enzyme (originating from HIV and cloned in E. coli) was provided by HT-Biotechnology LTD, Cambridge, UK.
The test was carried out in accordance with the supplier's (Amersham) methods manual--with the following modifications:
bovine serum albumin was added to the assay buffer to a final concentration of 0.5 mg/ml.
The test was carried out in Eppendorf reaction tubes using a mixture volume of […].
The supplier's RT concentrate (5000 U/ml) was diluted in 20 mM tris-HCl buffer; pH 7.2; 30% glycerol to an activity of 15 U/ml.
The assay mixtures were incubated for 60 min (at 37° C.).
After the reaction had been stopped and "developed" using the bead suspension, […] of assay mixture was transferred into 4.5 ml of 10 mM tris-HCl buffer; pH 7.4; 0.15M NaCl
and the tritium activity was measured in a β counter.
In order to carry out a preliminary test for inhibitor activity, the substances were dissolved in DMSO (stock solution concentration=1 mg/ml) and tested at 10^-1, 10^-2, 10^-3, etc. dilutions in DMSO.
In order to determine the IC50 values, the stock solutions of inhibitor were further diluted in 50 mM tris-HCl buffer, pH 8, and tested at suitable concentrations.
The concentration giving rise to 50% inhibition of the enzyme was ascertained from the graphic depiction of RT activity versus log Cinh.

[2] = HIV-infected lymphocytes, 3 days, 37° C.
[3] = HIV-infected lymphocytes, 3 days, 37° C., read-out: IC-50

COc1ccc2c(c1)C(=CCC(C)C)C(C)(C)C(=S)N2 [Compound 69]
MIC (HIV; [2]): < 20 ng/mL | IC50 (HIV): ~1.8 ng/mL (≈ 0.00622 µM) | IC50 ([1]; molar value in parentheses): 18 nM | IC50 [1]: 17.3 nM

CCCC=C1c2cc(OC)ccc2NC(=S)C1(C)C [Compound 42, E/Z-4-n-butylene-3,4-dihydro-3,3-dimethyl-6-methoxyquinolin-2(1H)-thione]
MIC (HIV; [2]): < 8 ng/mL | IC50 (HIV; [3]): 2 ng/mL (≈ 0.00726 µM) | IC50 ([1]; molar value in parentheses): 9 nM | IC50 [1]: 9.44 nM

CCC/C=C1\c2cc(Cl)ccc2NC(=O)C1(C)C [Compound 73, E-4-n-butylene-6-chloro-3,4-dihydro-3,3-dimethylquinolin-2(1H)-one]
MIC (HIV; [2]): < 40 ng/mL | IC50 (HIV; [3]): 20 ng/mL (≈ 0.0758 µM) | IC50 ([1]; molar value in parentheses): 30 nM | IC50 [1]: 30.3 nM

CCCC=C1c2ccccc2NC(=O)C1(CC)CC [Compound 48]
MIC (HIV; [2]): < 80 ng/mL | IC50 (HIV; [3]): ~10 ng/mL (≈ 0.0389 µM) | IC50 ([1]; molar value in parentheses): 54 nM | IC50 [1]: 54.4 nM

CCCC=C1c2ccccc2NC(=S)C1(CC)CC [Compound 49]
MIC (HIV; [2]): < 20 ng/mL | IC50 (HIV; [3]): ~2 ng/mL (≈ 0.00731 µM) | IC50 ([1]; molar value in parentheses): 24 nM | IC50 [1]: 25.6 nM

CCC=C1c2cc(Cl)ccc2NC(=O)C1(C)C [Compound 3]
MIC (HIV; [2]): < 80 ng/mL | IC50 (HIV; [3]): 30 ng/mL (≈ 0.12 µM) | IC50 [1]: 108 nM

CCCC=C1c2ccccc2NC(=S)C12CCC2 [Compound 7]
MIC (HIV; [2]): < 8 ng/mL | IC50 (HIV; [3]): ~0.32 ng/mL (≈ 0.00124 µM) | IC50 ([1]; molar value in parentheses): 18 nM | IC50 [1]: 19.4 nM

CC(C)CC=C1c2ccccc2NC(=S)C12CCCC2 [Compound 70]
MIC (HIV; [2]): 20 ng/mL (≈ 0.0701 µM) | IC50 (HIV; [3]): ~3 ng/mL (≈ 0.0105 µM) | IC50 ([1]; molar value in parentheses): 21 nM | IC50 [1]: 21 nM

CCC1(CC)C(=S)Nc2ccccc2C1=CCC(C)C [Compound 53]
MIC (HIV; [2]): 20 ng/mL (≈ 0.0696 µM) | IC50 (HIV; [3]): ~2 ng/mL (≈ 0.00696 µM) | IC50 ([1]; molar value in parentheses): 44 nM | IC50 [1]: 45.2 nM

CC/C=C1\c2cc(Cl)ccc2NC(=S)C1(C)C [Compound 71]
MIC (HIV; [2]): 1.6 ng/mL (≈ 0.00602 µM) | IC50 ([1]; molar value in parentheses): 5 nM | IC50 [1]: 3.76 nM

CC(C)CC=C1c2cc(Cl)ccc2NC(=O)C1(C)C [Compound 19]
IC50 (HIV; [3]): 8 ng/mL (≈ 0.0288 µM) | IC50 ([1]; molar value in parentheses): 37 nM | IC50 [1]: 37.1 nM

COc1ccc2c(c1)C(=C1CCCC1)C(C)(C)C(=O)N2 [Compound 138]
MIC (HIV; [2]): > 200 ng/mL | IC50 (HIV; [3]): 30 ng/mL (≈ 0.111 µM) | IC50 [1]: 225 nM
